Entries after “also recorded” stand apart in the source; their conditions may differ.
What was measured:
[1] = biological target: Ac24-SMT (sterol 24-methyltransferase, SMT1) (Acanthamoeba castellanii, UniProt L8GNG7); experiment: Inhibition of recombinant Ac24-SMT assayed with native substrate cycloartenol and [methyl-3H3]SAM; assay type: biochemical; settings: read-out: Ki against 24-SMT (competitive inhibitor); assayed with natural substrate
Protocol: The SMT constructs were transformed into competent BL21(DE3) cells and transformants selected against 100 µg/ml ampicillin. Expression of the SMT constructs and partial purification of the recombinant proteins followed the procedure described previously ([19]). Briefly, a single colony for 24-SMT and 28-SMT were grown overnight in an orbital shaker (250–300 rpm) at 37°C in Luria broth containing ampicillin and then reinoculated in fresh medium at 1 in 10 dilution. […] In one tube, cells were induced by addition of isopropyl thio-galactoside at a final concentration of 1 mM and in the other tube, were un-induced. Cells were harvested 2 and 4 h after induction and an equal number of cells (as calculated by OD @600 nm) from induced (+) and un-induced (−) cultures were boiled with 1X Laemmli’s buffer and analyzed by SDS-PAGE (12%). […] Total protein concentrations were determined by Bradford dye-binding procedure with bovine γ-globulin as standard. […] Incubation mixtures were saponified with methanolic potassium hydroxide and extracted with hexane (3 × 1 ml) and concentrated to dryness providing the nonsaponifiable lipid fraction; radioactivity was determined by liquid scintillation counting. […] Controls containing radioactive SAM and no sterol used to background subtract radioactivity in these treatments was less than 500 dpm. […]

Ac24-SMT = experiment: Substrate kinetics and product analysis with recombinant Ac24-SMT; assay type: biochemical, Acanthamoeba castellanii
Protocol: (§1) The SMT constructs were transformed into competent BL21(DE3) cells and transformants selected against 100 µg/ml ampicillin. Expression of the SMT constructs and partial purification of the recombinant proteins followed the procedure described previously ([19]). […] In one tube, cells were induced by addition of isopropyl thio-galactoside at a final concentration of 1 mM and in the other tube, were un-induced. Cells were harvested 2 and 4 h after induction and an equal number of cells (as calculated by OD @600 nm) from induced (+) and un-induced (−) cultures were boiled with 1X Laemmli’s buffer and analyzed by SDS-PAGE (12%). Gel was stained with Coomassie Brilliant Blue (0.2%) to establish the molecular weight and purity of the expressed protein. Total protein concentrations were determined by Bradford dye-binding procedure with bovine γ-globulin as standard. To determine the catalytic activity of the recombinant proteins, enzyme assays were carried out using soluble bacterial extract (100,000 g fraction) in 9 ml test tubes containing a total of 600 µl assay volume for 45 min (initial velocity conditions). The assay buffer contained 20 mM phosphate buffer in 5% (v/v) glycerol at pH 7.5, sterol acceptor emulsified in 12 µl Tween 80 (1.2 g/l), and the substrate tested over the concentration range 5 to 150 µM against 1.2 mg of total protein. The reaction was initiated by the addition of saturating levels of [methyl-^3H3]SAM, 0.9 µCi, at 150 µM. Incubation mixtures were saponified with methanolic potassium hydroxide and extracted with hexane (3 × 1 ml) and concentrated to dryness providing the nonsaponifiable lipid fraction; radioactivity was determined by liquid scintillation counting. […]

Ac28-SMT = experiment: Substrate kinetics and product analysis with recombinant Ac28-SMT; assay type: biochemical, Acanthamoeba castellanii; settings: incubated with SAM cosubstrate
Protocol: as §1

[2] = system: Acanthamoeba castellanii trophozoites sterol biosynthesis; experiment: Sterol composition of treated Ac trophozoites (GC/MS); assay type: cell-based; settings: 15 µM, 24 h
Protocol: Amoeba and HEK cells were harvested at one or more points during growth in the presence and absence of steroidal inhibitor and azole at IC50 or MACs of the inhibitor or at 40 µM for HEK cells. Cell pellets were split with an internal standard of known amounts of 5α-cholestane added to one of the cell pellets for determination of sterol amounts in cells. Cells were saponified directly in aqueous methanolic potassium hydroxide at the reflux temperature for 1 h, which yielded total sterol (free plus sterol released from ester bonds). The resulting neutral lipids obtained by dilution with water and extraction with hexane (Fisher) were analyzed by GC/MS or HPLC-equipped with a diode array detector against cholesterol as a chromatographic reference. GC and HPLC retention times of sterols were compared with those obtained from authentic standards in our steroid collection ([18]–[22]). To determine the trophozoite sterol metabolome, GC/MS analysis of cell pellet nonsaponfiables was typically carried out using control cultures incubated in 5 ml medium in 25 ml T-flasks inoculated with 1 × 10^4 trophozoites/ml and cultured for 72 h. To generate significant cell pellets for sterol analysis of treated cells, trophozoites were cultured in 10 ml medium in 25 ml T-flasks inoculated with 1 × 10^5 cells/ml and grown for 48 h.

Chain of Ac24-SMT (sterol 24-methyltransferase, SMT1) (L8GNG7 entry or part of it): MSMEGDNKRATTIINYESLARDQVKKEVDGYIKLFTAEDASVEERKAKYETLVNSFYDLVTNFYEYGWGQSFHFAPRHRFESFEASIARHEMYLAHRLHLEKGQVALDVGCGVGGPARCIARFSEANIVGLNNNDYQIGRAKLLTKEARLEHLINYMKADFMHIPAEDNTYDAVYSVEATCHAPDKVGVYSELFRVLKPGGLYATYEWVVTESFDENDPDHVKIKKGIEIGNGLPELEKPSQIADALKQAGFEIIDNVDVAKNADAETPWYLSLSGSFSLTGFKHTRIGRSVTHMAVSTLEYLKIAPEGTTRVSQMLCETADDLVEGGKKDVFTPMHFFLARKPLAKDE

CC(CCC=C1CC1)C1CC[C@@]2(C)C3=C(CCC12C)C1(C)CCC(O)C(C)(C)C1CC3 (stereo partly shown) [DHL, 26,27-dehydrolanosterol]
Ki [1]: 16 µM | difference in catalytic competence (kcat/Km) from the natural substrate of 24-SMT (Ac24-SMT): greater than 10 fold | conversion by Ac24-SMT to product P1 (C26-monol) (Ac24-SMT; GC/MS, saturating cosubstrates): 3% | conversion by Ac24-SMT to product P2 (C26-diol) (Ac24-SMT; GC/MS, saturating cosubstrates): 1% | Km (Michaelis / binding constant) as substrate of Ac24-SMT (Ac24-SMT; saturating SAM 150 µM, initial velocity conditions): ~33 µM | activity / methyl product formation as substrate of Ac28-SMT (Ac28-SMT): not productively bound; also recorded: no activity was observed; also recorded: no methyl products were detected | effect on sterol composition [2]: minimal effect

— paper PMC5711494, “Sterol methyltransferase a target for anti-amoeba therapy: towards transition state analog and suicide substrate drug design” (Journal of Lipid Research, 2017)
